Series [1] is described as follows: Inhibition of gamma-secretase in rat primary neuronal cells assessed as reduction in amyloid beta (1 to 42) production. The series is classed as cell-based. To be noted: Primary neuron.
Series [2] in a line: Lipophilicity, log D of the compound at pH 7.4 by reversed phase chromatography. It is filed as physicochemical. To be noted: buffer.
Series [3] can be described thus: Inhibition of gamma-secretase in rat primary neuronal cells assessed as reduction in amyloid beta (1 to 40) production. The series is classed as cell-based. To be noted: Primary neuron.
Series [4] is described as follows: Inhibition of gamma-secretase-mediated Notch processing in rat primary neuronal cells. It is filed as cell-based. To be noted: Primary neuron.
The nature of series [5]: Drug level in C57BL/6J mouse cortex at 10 mg/kg, po after 3 hrs. The series is classed as ADME, organism-based. To be noted: read-out: Drug uptake.
Series [6] can be described thus: Drug level in C57BL/6J mouse plasma at 10 mg/kg, po after 3 hrs. The series is classed as ADME, organism-based.
Series [7] relates to Mus musculus. Description: Reduction in amyloid beta (1 to 42) levels in C57BL/6J mouse brain at 10 mg/kg, po after 3 hrs. It is filed as functional.
Series [8] has as its system Mus musculus. Description: Reduction in amyloid beta (1 to 40) levels in C57BL/6J mouse brain at 10 mg/kg, po after 3 hrs. It is filed as functional.
Series [9] concerns Mus musculus. As to the kind of experiment: Reduction in amyloid beta (1 to 42) levels in C57BL/6J mouse plasma at 10 mg/kg, po after 3 hrs. The series is classed as functional.
The subject of series [10] is Mus musculus. As to the kind of experiment: Reduction in amyloid beta (1 to 40) levels in C57BL/6J mouse plasma at 10 mg/kg, po after 3 hrs. The series is classed as functional.

As a reminder, the IC50 is the concentration that gives 50% inhibition. Usually chromatographic logD stands for a lipophilicity value derived from retention on a column. A low value points to a more hydrophilic compound. Regarding `COc1cc(-c2nnc(Cc3ccc(Cl)c(Cl)c3)[nH]2)ccc1-c1cnc(C)o1`, the IC50 in series [1] is 2 µM. Further, in [2], the chromatographic logD came out at 4.1.

`COc1cc(-c2nc3n(n2)CCCC3c2ccc(Cl)c(Cl)c2)ccc1-c1cnc(C)o1` (stereo not drawn): in series [1], the half-inhibitory concentration (IC50) stood at 0.86 µM. This compound also displayed a chromatographic logD in [2] of 4.4.

In the case of `COc1cc(-c2nnc3n2CCCC3c2ccc(Cl)c(Cl)c2)ccc1-c1cnc(C)o1` (stereo not drawn), in series [1], the 50% inhibitory concentration (IC50) came to 0.21 µM. The chromatographic logD in series [2] worked out at 3.2.

`COc1cc(-c2nnn3c2CCCC3c2ccc(Cl)c(Cl)c2)ccc1-c1cnc(C)o1` (stereo not drawn): in series [1], the 50% inhibitory concentration (IC50) was found to be 0.21 µM. The chromatographic logD in series [2] was found to be 4.2.

`COc1cc(-c2nnc3n2CCCCC3c2ccc(Cl)c(Cl)c2)ccc1-c1cnc(C)o1` (stereo not drawn): the half-inhibitory concentration (IC50) in series [1] is 0.22 µM. Besides, the chromatographic logD in series [2] worked out at 3.5.

On to `COc1cc(-c2nnc3n2CCC3c2ccc(Cl)c(Cl)c2)ccc1-c1cnc(C)o1` (stereo not drawn), for which the IC50 in series [1] came to 0.63 µM. The chromatographic logD in series [2] was 3.3.

As to `COc1cc(-c2nnc3n2CCC=C3c2ccc(Cl)c(Cl)c2)ccc1-c1cnc(C)o1`, in [1], the IC50 was found to be 0.6 µM. The chromatographic logD in series [2] came to 3.6.

In the case of `COc1cc(-c2nnc3n2CCOC3c2ccc(Cl)c(Cl)c2)ccc1-c1cnc(C)o1` (stereo not drawn), the IC50 in [1] was determined as 0.53 µM. Moreover, the chromatographic logD in [2] was 3.1.

As to `COc1cc(-c2nnc3n2CCCC3c2ccc(Cl)cc2)ccc1-c1cnc(C)o1` (stereo not drawn), the half-inhibitory concentration (IC50) in series [1] amounted to 0.57 µM. This compound also showed a chromatographic logD in [2] of 2.8.

As for `COc1cc(-c2nnc3n2CCCC3c2ccc(C(F)(F)F)cc2)ccc1-c1cnc(C)o1` (stereo not drawn), the IC50 in [1] amounted to 0.51 µM. The chromatographic logD in series [2] amounted to 2.9.

Turning to `COc1cc(-c2nnc3n2CCCC3c2ccc(F)cc2)ccc1-c1cnc(C)o1` (stereo not drawn), the IC50 in [1] was determined as 1.5 µM. In series [2], this compound returned a chromatographic logD of 2.4.

Consider `COc1ccc(C2CCCn3c(-c4ccc(-c5cnc(C)o5)c(OC)c4)nnc32)cc1` (stereo not drawn), for which the IC50 in series [1] stood at 1.9 µM. In [2], this compound displayed a chromatographic logD of 2.4.

Take `COc1cc(-c2nnc3n2CCCC3c2ccc(N3CCOCC3)cc2)ccc1-c1cnc(C)o1` (stereo not drawn): the 50% inhibitory concentration (IC50) in series [1] worked out at 2.3 µM. Moreover, the chromatographic logD in series [2] came out at 2.3.

As to `COc1cc(-c2nnc3n2CCCC3c2cccc(C(F)(F)F)c2)ccc1-c1cnc(C)o1` (stereo not drawn), the IC50 in series [1] turned out to be 0.37 µM. The same compound displayed a chromatographic logD in series [2] of 2.8.

For `COc1cc(-c2nnc3n2CCCC3c2ccccc2C(F)(F)F)ccc1-c1cnc(C)o1` (stereo not drawn), the IC50 in series [1] worked out at 0.38 µM. For the same compound, in [2], the chromatographic logD came out at 3.

Regarding `COc1cc(-c2nnc3n2CCCC3c2ccc(Cl)c(C(F)(F)F)c2)ccc1-c1cnc(C)o1` (stereo not drawn), the 50% inhibitory concentration (IC50) in [1] came out at 0.22 µM. The compound also yielded a chromatographic logD in [2] of 3.2.

With `COc1cc(-c2nnc3n2CCCC3c2cc(C(F)(F)F)ccc2C(F)(F)F)ccc1-c1cnc(C)o1` (stereo not drawn), the IC50 in [1] worked out at 0.3 µM. Besides, in series [2], the chromatographic logD turned out to be 3.3.

`COc1cc(-c2nnc3n2CCCC3c2ccc(Cl)cc2C(F)(F)F)ccc1-c1cnc(C)o1` (stereo not drawn): the half-maximal inhibitory concentration (IC50) in series [1] turned out to be 0.084 µM. In [2], the chromatographic logD was 3.5.

As for `COc1cc(-c2nnc3n2CCC[C@H]3c2ccc(Cl)cc2C(F)(F)F)ccc1-c1cnc(C)o1`, the IC50 in [1] was 0.83 µM. Moreover, the chromatographic logD in series [2] was 3.5.

Take `COc1cc(-c2nnc3n2CCC[C@@H]3c2ccc(Cl)cc2C(F)(F)F)ccc1-c1cnc(C)o1`: the IC50 was 0.06 µM in series [1], 0.49 µM in series [3] and above 10 µM in [4]. The chromatographic logD in [2] was 3.5. Besides, the concentration at 3 h in series [5] is 2330 ng/g; in series [6], 6450 ng/mL. Moreover, the % of vehicle at 10 mg/kg was found to be 50% in the series with Mus musculus [7], 75% in the series with Mus musculus [8], 31% in the series on Mus musculus [9] and 63% in the series with Mus musculus [10].
